Test results published in US20250213639A1 (U.S. NUTRACEUTICALS, INC., d/b/a Valensa International, priority 2021, published 2025).

Columns and labels:
DHT = details: cited from earlier work
[1] = oral, guinea pigs, fur and skin; cited from earlier work
[2] = test system: men with mild to moderate androgenic alopecia; details: 1 milligram per day, 24 months; cited from earlier work
5α-Reductase-1 = molecular target: T1, 5α-Reductase-1 (Homo sapiens, UniProt P18405); assay: 5α-reductase inhibition by constituents of saw palmetto extract (FIGS. 2, 3), Type 1; assay type: biochemical
T1 sequence (P18405 1-259): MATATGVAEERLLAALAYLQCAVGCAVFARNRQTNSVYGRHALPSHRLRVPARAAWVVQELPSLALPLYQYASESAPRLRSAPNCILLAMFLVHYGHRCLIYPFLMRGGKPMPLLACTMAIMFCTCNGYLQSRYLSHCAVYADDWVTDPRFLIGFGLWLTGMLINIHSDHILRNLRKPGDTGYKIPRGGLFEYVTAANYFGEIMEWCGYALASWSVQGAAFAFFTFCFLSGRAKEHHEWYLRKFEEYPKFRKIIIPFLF

normal mice = details: after about 20 days, normal shaved mice; cited from earlier work
5α-Reductase-2 = molecular target: T2, 5α-Reductase-2 (Homo sapiens, UniProt P31213); assay: 5α-reductase inhibition by constituents of saw palmetto extract (FIGS. 2, 3), Type 2; assay type: biochemical
T2 sequence (P31213 1-254): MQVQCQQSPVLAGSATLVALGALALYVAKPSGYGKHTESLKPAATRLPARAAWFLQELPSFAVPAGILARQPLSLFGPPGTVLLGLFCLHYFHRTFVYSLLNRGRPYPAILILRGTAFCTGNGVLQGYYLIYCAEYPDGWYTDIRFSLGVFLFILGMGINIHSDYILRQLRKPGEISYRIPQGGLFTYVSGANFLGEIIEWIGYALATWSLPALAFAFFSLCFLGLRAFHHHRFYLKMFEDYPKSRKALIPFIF

Compound: C[C@]12C=CC(=O)N[C@@H]1CC[C@@H]1[C@@H]2CC[C@]2(C)[C@@H](C(=O)Nc3cc(C(F)(F)F)ccc3C(F)(F)F)CC[C@@H]12 [Dutasteride]
- reduction of DHT levels in the entire body (DHT; in vivo): more than 99%

Compound: CC/C=C\C/C=C\C/C=C\CCCCCCCC(=O)O [Linolenic acid]
- share of that lipid found in the free fatty acid form [1]: Over 70%

Compound: CC(C)(C)NC(=O)[C@H]1CC[C@H]2[C@@H]3CC[C@H]4NC(=O)C=C[C@]4(C)[C@H]3CC[C@]12C [finasteride]
- decrease of the production of DHT (DHT; in some formulations): about 70%
- men who noted an improvement [2]: 68%

Compound: CCCCC/C=C\C/C=C\CCCCCCCC(=O)O [linoleic acid]
- effectiveness for 5α-Reductase-1 (5α-Reductase-1): beneficial for both
- hair growth (normal mice): about 100%

Compound: CCCCCCCC/C=C\CCCCCCCC(=O)O [oleic acid]
- effectiveness for 5α-Reductase-1 (5α-Reductase-1): especially effective
- effectiveness for 5α-Reductase-2 (5α-Reductase-2): not as much
